Reference: patent publication US4340609A, “Amidinourea derivative veterinary compositions for suppression of parasitemia” (William H. Rorer, Inc., priority 1980, dated 1982)
Like-named read-outs stand apart in the source and are kept apart here.

What was measured:
[1] = system: plasmodium berghei; test: suppression of parasitemia in mice infected with plasmodium berghei; assay type: in vivo; settings: for ED50: Plasmodium berghei, sc
Description: Five representative amidinoureas were tested in mice infected with plasmodium berghei. The five compounds tested are the following:
Groups of 10 mice each were used in seven doses totaling 70 mice per compound. The protozoal infection was induced by intraperitoneal injection of 5,000,000 parasitized blood cells from a donor. The compound was administered subcutaneously in doses ranging from 0.15 to 10 mg. per kg., suspended on 0.5% methacel solution (doses expressed as base). The compound was repeatedly injected on the day of inoculation (day 1), day 2 and day 3. Blood smears were performed on days 4, 5, 6 and 10.
Untreated control but infected mice developed fulminating parasitemia of as high as 35% on day 10 and deaths occurred from day 12 to 14.

[2] = LD50 in mice; settings: mouse, in vivo
[3] = mice, s.c., 1.0 mg/kg on days 1-3, 4th day
[4] = mice, s.c., 1.0 mg/kg on days 1-3, 5th day
[5] = mice, s.c., 1.0 mg/kg on days 1-3, 6th day
[6] = mice, s.c., 1.0 mg/kg on days 1-3, 10th day
[7] = mice, s.c., 2.0 mg/kg on days 1-3, 4th day
[8] = mice, s.c., 2.0 mg/kg on days 1-3, 5th day
[9] = mice, s.c., 2.0 mg/kg on days 1-3, 6th day
[10] = mice, s.c., 2.0 mg/kg on days 1-3, 10th day
[11] = mice, s.c., 10.0 mg/kg on days 1-3, 4th day
[12] = mice, s.c., 10.0 mg/kg on days 1-3, 5th day
[13] = mice, s.c., 10.0 mg/kg on days 1-3, 6th day
[14] = mice, s.c., 10.0 mg/kg on days 1-3, 10th day
[15] = mice, s.c., .15 mg/kg on days 1-3, 4th day
[16] = mice, s.c., .15 mg/kg on days 1-3, 5th day
[17] = mice, s.c., .15 mg/kg on days 1-3, 6th day
[18] = mice, s.c., .15 mg/kg on days 1-3, 10th day
[19] = mice, s.c., .20 mg/kg on days 1-3, 4th day
[20] = mice, s.c., .20 mg/kg on days 1-3, 5th day
[21] = mice, s.c., .20 mg/kg on days 1-3, 6th day
[22] = mice, s.c., .20 mg/kg on days 1-3, 10th day
[23] = mice, s.c., .30 mg/kg on days 1-3, 4th day
[24] = mice, s.c., .30 mg/kg on days 1-3, 5th day
[25] = mice, s.c., .30 mg/kg on days 1-3, 6th day
[26] = mice, s.c., .30 mg/kg on days 1-3, 10th day
[27] = mice, s.c., .50 mg/kg on days 1-3, 4th day
[28] = mice, s.c., .50 mg/kg on days 1-3, 5th day
[29] = mice, s.c., .50 mg/kg on days 1-3, 6th day
[30] = mice, s.c., .50 mg/kg on days 1-3, 10th day

In the case of CCCNC(=O)NC(=N)Nc1c(Cl)cccc1Cl [Compound A, 1-(2,6-dichlorophenylamidino)-3-n-propylurea], the ED50 ([1]; 96 h, mice, s.c., levels of parasitemia, 4th day, read-out: SED50 (Suppressant Effective Dose50)) was 0.71 mg/kg, the ED50 ([1]; 120 h, mice, s.c., levels of parasitemia, 5th day, read-out: SED50 (Suppressant Effective Dose50)) was 1.2 mg/kg and the ED50 ([1]; 144 h, mice, s.c., levels of parasitemia, 6th day, read-out: SED50 (Suppressant Effective Dose50)) was 1.05 mg/kg. For the same molecule, the ED50 ([1]; 240 h, mice, s.c., levels of parasitemia, 10th day, read-out: SED50 (Suppressant Effective Dose50)) was 1.58 mg/kg, the ED50 ([1]; mice, day 4 to day 10, read-out: HIGHEST SED50) was 1.58 mg/kg and the ED50 ([1]; mice, day 4 to day 10, read-out: LOWEST SED50) was 0.71 mg/kg. The “FACTOR (HIGHEST SED50 ÷ LOWEST SED50)” value ([1]; factor of change, day 4 to day 10, duration of action) was 2.23, the duration of action ([1]; mice, among the five compounds) was “longest duration of action” and the SED50 rank ([1]; mice, day 10, among the five compounds) was “lowest SED50 on day 10”. For the same molecule, the “Mean % Parasitemia” value [1, 3] was 2.50%, the “Mean % Suppression” value [1, 3] was 52.3% and the “Mean % Parasitemia” value [1, 4] was 4.20%. For the same molecule, the “Mean % Suppression” value [1, 4] was 42.5%, the “Mean % Parasitemia” value [1, 5] was 4.60% and the “Mean % Suppression” value [1, 5] was 50.5%. For the same molecule, the “Mean % Parasitemia” value [1, 6] was 20.4%, the “Mean % Suppression” value [1, 6] was 42.5% and the “% died” value ([1]; mice, s.c., 1.0 mg/kg on days 1-3, 12th day) was 0%. The “% died” value ([1]; mice, s.c., 1.0 mg/kg on days 1-3, 13th day) was 20%, the “% died” value ([1]; mice, s.c., 1.0 mg/kg on days 1-3, 14th day) was 40% and the “Mean % Parasitemia” value [1, 7] was 2.25%. For the same molecule, the “Mean % Suppression” value [1, 7] was 57.1%, the “Mean % Parasitemia” value [1, 8] was 3.00% and the “Mean % Suppression” value [1, 8] was 59.0%. For the same molecule, the “Mean % Parasitemia” value [1, 9] was 3.80%, the “Mean % Suppression” value [1, 9] was 59.1% and the “Mean % Parasitemia” value [1, 10] was 16.5%. For the same molecule, the “Mean % Suppression” value [1, 10] was 53.5%, the “% died” value ([1]; mice, s.c., 2.0 mg/kg on days 1-3, 12th day) was 0% and the “% died” value ([1]; mice, s.c., 2.0 mg/kg on days 1-3, 13th day) was 0%. For the same molecule, the “% died” value ([1]; mice, s.c., 2.0 mg/kg on days 1-3, 14th day) was 20%, the “Mean % Parasitemia” value [1, 11] was 0% and the “Mean % Suppression” value [1, 11] was 100.0%. For the same molecule, the “Mean % Parasitemia” value [1, 12] was 0%, the “Mean % Suppression” value [1, 12] was 100.0% and the “Mean % Parasitemia” value [1, 13] was 0%. For the same molecule, the “Mean % Suppression” value [1, 13] was 100.0%, the “Mean % Parasitemia” value [1, 14] was 0% and the “Mean % Suppression” value [1, 14] was 100.0%. For the same molecule, the “% died” value ([1]; mice, s.c., 10.0 mg/kg on days 1-3, 12th day) was 0%, the “% died” value ([1]; mice, s.c., 10.0 mg/kg on days 1-3, 13th day) was 0% and the “% died” value ([1]; mice, s.c., 10.0 mg/kg on days 1-3, 14th day) was 0%. For the same molecule, the “Mean % Parasitemia” value [1, 15] was 5.00%, the “Mean % Suppression” value [1, 15] was 4.8% and the “Mean % Parasitemia” value [1, 16] was 6.90%. For the same molecule, the “Mean % Suppression” value [1, 16] was 5.5%, the “Mean % Parasitemia” value [1, 17] was 8.10% and the “Mean % Suppression” value [1, 17] was 12.9%. For the same molecule, the “Mean % Parasitemia” value [1, 18] was 33.02%, the “Mean % Suppression” value [1, 18] was 7.0% and the “% died” value ([1]; mice, s.c., .15 mg/kg on days 1-3, 12th day) was 40%. The “% died” value ([1]; mice, s.c., .15 mg/kg on days 1-3, 13th day) was 60%, the “% died” value ([1]; mice, s.c., .15 mg/kg on days 1-3, 14th day) was 80% and the “Mean % Parasitemia” value [1, 19] was 4.00%. The “Mean % Suppression” value [1, 19] was 23.8%, the “Mean % Parasitemia” value [1, 20] was 6.80% and the “Mean % Suppression” value [1, 20] was 6.8%. The “Mean % Parasitemia” value [1, 21] was 7.50%, the “Mean % Suppression” value [1, 21] was 19.4% and the “Mean % Parasitemia” value [1, 22] was 30.1%. For the same molecule, the “Mean % Suppression” value [1, 22] was 15.2%, the “% died” value ([1]; mice, s.c., .20 mg/kg on days 1-3, 12th day) was 0% and the “% died” value ([1]; mice, s.c., .20 mg/kg on days 1-3, 13th day) was 20%. The “% died” value ([1]; mice, s.c., .20 mg/kg on days 1-3, 14th day) was 20%, the “Mean % Parasitemia” value [1, 23] was 3.25% and the “Mean % Suppression” value [1, 23] was 38.1%. For the same molecule, the “Mean % Parasitemia” value [1, 24] was 6.30%, the “Mean % Suppression” value [1, 24] was 13.7% and the “Mean % Parasitemia” value [1, 25] was 7.20%. The “Mean % Suppression” value [1, 25] was 22.6%, the “Mean % Parasitemia” value [1, 26] was 28.5% and the “Mean % Suppression” value [1, 26] was 19.7%. For the same molecule, the “% died” value ([1]; mice, s.c., .30 mg/kg on days 1-3, 12th day) was 0%, the “% died” value ([1]; mice, s.c., .30 mg/kg on days 1-3, 13th day) was 20% and the “% died” value ([1]; mice, s.c., .30 mg/kg on days 1-3, 14th day) was 20%. The “Mean % Parasitemia” value [1, 27] was 2.75%, the “Mean % Suppression” value [1, 27] was 47.6% and the “Mean % Parasitemia” value [1, 28] was 5.00%. The “Mean % Suppression” value [1, 28] was 31.5%, the “Mean % Parasitemia” value [1, 29] was 5.40% and the “Mean % Suppression” value [1, 29] was 41.9%. For the same molecule, the “Mean % Parasitemia” value [1, 30] was 24.8%, the “Mean % Suppression” value [1, 30] was 30.1% and the “% died” value ([1]; mice, s.c., .50 mg/kg on days 1-3, 12th day) was 0%. The “% died” value ([1]; mice, s.c., .50 mg/kg on days 1-3, 13th day) was 0%, the “% died” value ([1]; mice, s.c., .50 mg/kg on days 1-3, 14th day) was 40% and the LD50 [2] was greater than 600 mg/kg.
